Among the test systems are OVCAR-3 ovarian; SK-MEL-28 melanoma; HCT-116 colon; TK-10 renal; MOLT-4 leukemia; OVCAR-8 ovarian; RPMI-8226 leukemia; PC-3 prostate; MCF7 breast; MDA-N.
Assay in all cases: growth of human tumour cells (NCI), 48 h

Structures are written as SMILES.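 48-hour exposure; five concentrations; linearly interpolated endpoints. GI50 is the concentration that inhibits growth by half. TGI: concentration producing complete growth inhibition.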 A value given as a limit tells only on which side of the number the result lay.

As for `CCSCN(C)c1nc(N(C)C)nc(N(C)C)n1`, the TGI in the test on OVCAR-3 ovarian, in the test with SK-MEL-28 melanoma, in the test on HCT-116 colon, in the test with TK-10 renal, in the test on MOLT-4 leukemia and with OVCAR-8 ovarian was over 100 µM throughout. The TGI in the test with RPMI-8226 leukemia was over 100 µM.
`C=C(C)C1CC/C(C)=C/CC[C@]2(C)O[C@@H]2CCC2=CC1OC2=O` (stereo partly specified): the GI50 in the test with SK-MEL-28 melanoma is over 100 µM; in the test on HCT-116 colon, 27.6 µM; in the test on TK-10 renal, 15.7 µM; in the test with MOLT-4 leukemia, 12.1 µM; in the test on OVCAR-8 ovarian, over 100 µM; in the test on PC-3 prostate it was 48.9 µM. Further, the values for the GI50 in the test on MCF7 breast and in the test on RPMI-8226 leukemia were over 100 µM and 10.5 µM, respectively. Moreover, the TGI in the test on SK-MEL-28 melanoma was over 100 µM; in the test with HCT-116 colon, over 100 µM; in the test on TK-10 renal, over 100 µM; with MOLT-4 leukemia, 30.6 µM; with OVCAR-8 ovarian, over 100 µM; with PC-3 prostate, over 100 µM. The TGI in the test with MCF7 breast is over 100 µM; in the test on RPMI-8226 leukemia it was 22.2 µM.
For `COc1cc(C2C(Cl)C(=O)N2NC(=O)c2ccc(NC(C)=O)cc2)ccc1O` (stereo unspecified), the TGI in the test with OVCAR-3 ovarian, with SK-MEL-28 melanoma, with HCT-116 colon, with TK-10 renal, with MOLT-4 leukemia and with OVCAR-8 ovarian was over 100 µM in each case. This compound came in with a TGI in the test with RPMI-8226 leukemia of over 100 µM.
Regarding `CCOC(=O)c1cc2c(OCc3ccccc3)c(OC)cc3c2c(n1)N(c1ccc(OC)cc1)C(C)C3` (stereo unspecified), the TGI in the test with OVCAR-3 ovarian, in the test with SK-MEL-28 melanoma, with HCT-116 colon, with TK-10 renal, in the test with MOLT-4 leukemia and with OVCAR-8 ovarian was over 50 µM in each case. In the test on RPMI-8226 leukemia, the TGI was over 50 µM.
On to `C[S+](C)CC1OC(n2cnc3c(N)ncnc32)C(O)C1O` (stereo unspecified), for which the TGI in the test with OVCAR-3 ovarian, in the test with SK-MEL-28 melanoma, in the test on HCT-116 colon, in the test with MOLT-4 leukemia, with OVCAR-8 ovarian and in the test with MCF7 breast was over 225 µM each time. This compound displayed a TGI in the test on RPMI-8226 leukemia of over 225 µM.
As to `CN(C)CCNC(=O)c1cccc2cc3cc(O)ccc3nc12`, the TGI in the test on OVCAR-3 ovarian is 3.61 µM; in the test with SK-MEL-28 melanoma, 4.65 µM; with HCT-116 colon, 5.73 µM; in the test with MOLT-4 leukemia it was 3.17 µM; in the test with OVCAR-8 ovarian, 3.34 µM; with MCF7 breast, 6.47 µM. Further, the TGI with RPMI-8226 leukemia amounted to 5.46 µM.
For `CC1(C)C2CCC3(OCCO3)C1C(O)C2` (stereo unspecified), the TGI with OVCAR-3 ovarian, in the test on SK-MEL-28 melanoma, in the test on HCT-116 colon, in the test on TK-10 renal, in the test with MOLT-4 leukemia and in the test with OVCAR-8 ovarian was over 100 µM each time. Moreover, the TGI in the test on RPMI-8226 leukemia is over 100 µM.
For the compound `CC(=O)OC12c3ccccc3C(c3ccccc31)C1C(=O)N(c3ccccn3)C(=O)C12` (stereo unspecified), the TGI with OVCAR-3 ovarian, in the test with SK-MEL-28 melanoma, with HCT-116 colon, in the test with TK-10 renal, in the test with MOLT-4 leukemia and in the test with OVCAR-8 ovarian was over 100 µM in each case. In addition, the TGI with PC-3 prostate, in the test with MCF7 breast and in the test on RPMI-8226 leukemia was over 100 µM throughout.
In the case of `O=NN(CCF)C(=O)NC1CC2CCC1C2` (stereo unspecified), the TGI in the test on OVCAR-3 ovarian, in the test on SK-MEL-28 melanoma, with HCT-116 colon, with MOLT-4 leukemia, in the test on OVCAR-8 ovarian and in the test on MCF7 breast was over 100 µM each time. In addition, in the test on RPMI-8226 leukemia, the TGI was over 87.7 µM.
Turning to `Nc1cccc(S(=O)(=O)Nc2nnc(S(N)(=O)=O)s2)c1`, the TGI in the test with OVCAR-3 ovarian, with SK-MEL-28 melanoma, in the test on HCT-116 colon, with TK-10 renal, in the test on MOLT-4 leukemia and in the test with OVCAR-8 ovarian was over 100 µM each time. The TGI with PC-3 prostate, with MCF7 breast and in the test with RPMI-8226 leukemia was over 100 µM throughout.
`O=[N+]([O-])c1ccc2oc(=Nc3ccccc3)c(Nc3ccccc3)nc2c1`: the TGI in the test on SK-MEL-28 melanoma, in the test on HCT-116 colon, with TK-10 renal, in the test on MOLT-4 leukemia, in the test on MDA-N and with OVCAR-8 ovarian was over 100 µM throughout. Further, the TGI with PC-3 prostate and with RPMI-8226 leukemia was over 100 µM in each case.
Turning to `CS(=O)(=O)c1nc(-c2cc3c(c(S(C)(=O)=O)n2)CCC3)cc2c1CCCC2`, the TGI in the test with OVCAR-3 ovarian, in the test with SK-MEL-28 melanoma, with HCT-116 colon, with TK-10 renal, in the test on MOLT-4 leukemia and with MDA-N was over 100 µM throughout. Moreover, the TGI with OVCAR-8 ovarian was 57.9 µM; in the test on PC-3 prostate it was over 100 µM; in the test with RPMI-8226 leukemia, over 100 µM.
As to `COc1ccc2c(c1)OCCc1cn[nH]c1-2`, the TGI with OVCAR-3 ovarian was over 100 µM; in the test on SK-MEL-28 melanoma it was over 100 µM; with HCT-116 colon, over 100 µM; in the test with MOLT-4 leukemia it was 70.4 µM; in the test on OVCAR-8 ovarian, over 100 µM; in the test on MCF7 breast it was over 100 µM.
Turning to `COc1ccc2nc3c(c(NCCCN(C)C)c2c1)CCCC3`, the TGI in the test on OVCAR-3 ovarian was 51.4 µM; in the test on SK-MEL-28 melanoma, 30.9 µM; with HCT-116 colon it was 17.2 µM; in the test on TK-10 renal, over 100 µM; in the test on MOLT-4 leukemia it was 14.2 µM; in the test with OVCAR-8 ovarian, 36.4 µM. Moreover, the TGI with RPMI-8226 leukemia was 27.2 µM.
Take `CC(=O)NNc1nc(C)c(C(=O)NNC(=O)C(=O)Nc2cccc(C(C)=O)c2)s1`: the TGI in the test with SK-MEL-28 melanoma was 49 µM; in the test with HCT-116 colon, over 100 µM; in the test on TK-10 renal it was 31.1 µM; in the test with MOLT-4 leukemia, over 100 µM; in the test with OVCAR-8 ovarian, 39.4 µM; with RPMI-8226 leukemia, over 100 µM.
Turning to `Cc1ccc(N(O)C(C)(C)C)cc1`, the TGI in the test with OVCAR-3 ovarian, in the test with SK-MEL-28 melanoma, with HCT-116 colon, in the test on MOLT-4 leukemia, in the test on OVCAR-8 ovarian and in the test with MCF7 breast was over 100 µM each time. The same compound showed a TGI in the test on RPMI-8226 leukemia of over 100 µM.

For the origin of these results see PubChem BioAssay (NCI).
